Data taken from PubChem BioAssay (NCI).
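Protocol summary: plate cells (96-well), add compound at 5 concentrations, incubate 48 h, interpolate endpoints linearly. GI50 is the concentration that inhibits growth by half. TGI is the concentration that stops growth completely.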

Legend:
Test in all cases: DTP human tumour cell line panel, 48 h
[1] = system: UO-31 renal
[2] = system: SK-MEL-2 melanoma
[3] = system: RPMI-8226 leukemia
[4] = system: M14 melanoma
[5] = system: K-562 leukemia
[6] = system: U251 CNS
[7] = system: COLO 205 colon
[8] = system: PC-3 prostate
[9] = system: BT-549 breast
[10] = system: NCI/ADR-RES ovarian

Row | SMILES | GI50 [1] | TGI [1] | GI50 [2] | TGI [2] | GI50 [3] | TGI [3] | GI50 [4] | TGI [4] | GI50 [5] | TGI [5] | GI50 [6] | TGI [6] | GI50 [7] | TGI [7] | GI50 [8] | TGI [8] | GI50 [9] | TGI [9] | GI50 [10] | TGI [10]
1 | CC(=O)[CH-]C(=O)c1ccccc1.CC(=O)[CH-]C(=O)c1ccccc1.CC(=O)[CH-]C(=O)c1ccccc1.[Ga+3] | 26.7 µM | 76.2 µM | 10.8 µM | 23.6 µM | 12.1 µM | 37.1 µM | 15.5 µM | 30.1 µM | 16.9 µM | 51.5 µM | 12.7 µM | 25.8 µM | 17.7 µM | 32.3 µM | – | – | – | – | – | –
2 | O=C(CI)Nc1ccc(Br)cc1 | 1.63 µM | 3.17 µM | 2.9 µM | 8.03 µM | – | – | 1.92 µM | 3.85 µM | 2.53 µM | > 100 µM | 1.83 µM | 3.87 µM | 1.85 µM | 3.7 µM | 2.43 µM | 6.22 µM | 1.64 µM | 3.14 µM | 3.03 µM | 9.76 µM
3 | CC(=O)C1C(=O)C(=O)N(CCN2C(=O)C(=O)C(C(C)=O)C2=O)C1=O (centres undefined) | – | > 100 µM | – | > 100 µM | – | > 100 µM | – | > 100 µM | – | > 100 µM | – | > 100 µM | – | > 100 µM | – | – | – | – | – | –
4 | CCOC(=O)C1C(=O)CC(=O)C2CCCCC21 (centres undefined) | – | > 100 µM | – | > 100 µM | – | > 100 µM | – | > 100 µM | – | > 100 µM | – | > 100 µM | – | > 100 µM | – | – | – | – | – | –
5 | CC1(C)C(=O)/C=C\C(=O)C(C)(C)C(=O)/C=C\C(=O)C(C)(C)C2=CC=C(O2)C(C)(C)C(=O)/C=C\C1=O | – | 28.3 µM | – | 25.5 µM | – | 3.17 µM | – | 5.63 µM | – | > 46.9 µM | – | 30.4 µM | – | 6.45 µM | – | 29.2 µM | – | 24.2 µM | – | –
6 | N#CC1=C(N)OC2=C(CCOc3c2ccc2ccccc32)C1c1ccc(Br)cc1 (centres undefined) | > 100 µM | > 100 µM | – | – | 13.5 µM | 40.8 µM | 26.9 µM | > 100 µM | 16.5 µM | 54.3 µM | – | – | 29 µM | > 100 µM | 19.9 µM | 53.6 µM | > 100 µM | > 100 µM | 33.4 µM | > 100 µM
7 | Cc1c(-c2ccccn2)ccc2ccccc12 | – | 82.9 µM | – | – | – | 44.1 µM | – | > 100 µM | – | > 100 µM | – | > 100 µM | – | > 100 µM | – | > 100 µM | – | – | – | > 100 µM
8 | CN(C)N=Nc1ccc(S(N)(=O)=O)cc1 | – | > 100 µM | – | > 100 µM | – | > 100 µM | – | > 100 µM | – | > 100 µM | – | > 100 µM | – | > 100 µM | – | – | – | – | – | –
9 | COc1ccc2c(c1)-c1c(c3cc(OC)ccc3n(CCN(C)C)c1=O)C2=O | 0.127 µM | 1.23 µM | – | – | 0.445 µM | 1.97 µM | 1.8 µM | 10.2 µM | 0.28 µM | 3.09 µM | 0.443 µM | 6.77 µM | 0.461 µM | 4.7 µM | 1.49 µM | 8.88 µM | 5.84 µM | 12.9 µM | 0.659 µM | 7.41 µM
